Experimental data taken from patent publication EP1081144A2, “Process for making 5-lipoxygenase inhibitors having varied heterocyclic ring systems” (Pfizer Products Inc., priority 1999, dated 2001).
Values after ≈ are worked out from the molar mass of the structure shown.

Assay: Solubility of the reaction product in acetic acid and in acetic acid/water
Format: physicochemical
Details: organic solvent or mixture
Procedure: The reaction mixture was cooled to 22°C and granulated for 1 hour. The resulting slurry was then vacuum filtered and the filter cake was washed twice with water (100 ml). The filter cake (75 g) was placed in a 50°C vacuum drier with a nitrogen bleed, after which 23.04 g of solid product were obtained for a yield of 74.0%.

solubility (in a 2:1 mixture of acetic acid and water): ~4.5 mg/mL (≈ 13.6 mM)
solubility (in acetic acid at room temperature): ~62 mg/mL (≈ 187 mM)
SMILES: NC(=O)C1(c2cccc(Sc3ccc(F)cc3)c2)CCOCC1 [Example 3, tetrahydro-4-[3-(4-fluorophenyl)thio]phenyl-2H-pyran-4-carboxamide]
